This note sets out measurements from ChEMBL document CHEMBL4840307, “Synthesis and biological evaluation of 1-(4-(piperazin-1-yl)phenyl)pyridin-2(1H)-one derivatives as potential SSRIs” (Eur J Med Chem, 2021).

The target of series [1] is Sodium-dependent serotonin transporter (Rattus norvegicus, UniProt P31652). The series is described as follows: Inhibition of serotonin transporter expressed in rat brain tissue assessed as inhibition of [3H]-5-hydroxytryptamine reuptake measured after 15 mins by scintillation counting analysis. Format: tissue-based.
A short description of series [2]: Oral bioavailability in Sprague-Dawley rat at 5 mg/kg measured by LC-MS/MS analysis. To be noted: in vivo. Format: ADME, organism-based.
The nature of series [3]: Cmax in Sprague-Dawley rat at 5 mg/kg, po measured by LC-MS/MS analysis. The format is ADME, organism-based. Also on record: route oral, dose 5 mg/kg. To be noted: in vivo.
The nature of series [4]: Half life in Sprague-Dawley rat at 2 mg/kg, iv measured by LC-MS/MS analysis. To be noted: in vivo. The format is ADME, organism-based.
Series [5] can be described thus: Metabolic stability in rat liver microsomes assessed as clearance incubated for 60 mins by LC-MS/MS analysis. Format: ADME, Microsome. The following applies: read-out: CLH. (Liver microsomes are a subcellular fraction often used to study metabolism.)
A short description of series [6]: Cmax in Sprague-Dawley rat at 2 mg/kg, iv measured by LC-MS/MS analysis. The following applies: in vivo. Further details: route intravenous, dose 2 mg/kg. Format: ADME, organism-based.
The nature of series [7]: Half life in Sprague-Dawley rat at 5 mg/kg, po measured by LC-MS/MS analysis. Format: ADME, organism-based. The following applies: in vivo.
Series [8] deals with T1, 5-hydroxytryptamine receptor 1A (Homo sapiens, UniProt P08908).
T1 sequence (P08908 whole entry): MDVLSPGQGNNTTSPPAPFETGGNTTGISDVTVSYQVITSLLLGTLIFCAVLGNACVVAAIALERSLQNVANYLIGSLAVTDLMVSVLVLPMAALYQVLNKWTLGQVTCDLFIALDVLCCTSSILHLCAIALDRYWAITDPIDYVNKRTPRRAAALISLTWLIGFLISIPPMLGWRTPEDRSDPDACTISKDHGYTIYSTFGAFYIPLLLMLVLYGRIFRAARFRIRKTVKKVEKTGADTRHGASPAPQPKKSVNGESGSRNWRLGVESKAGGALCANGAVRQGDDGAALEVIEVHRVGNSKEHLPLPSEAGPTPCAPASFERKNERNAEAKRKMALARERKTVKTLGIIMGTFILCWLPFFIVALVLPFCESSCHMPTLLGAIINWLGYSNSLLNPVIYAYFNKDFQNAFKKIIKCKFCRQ
The series is described as follows: Inhibition of 5-HT1a (unknown origin).

A short description of series [9]: Metabolic stability in rat liver microsomes assessed as half life incubated for 60 mins by LC-MS/MS analysis. The format is ADME, Microsome.
Series [10] deals with T2, 5-hydroxytryptamine receptor 3A (Homo sapiens, UniProt P46098).
T2 sequence (P46098 whole entry): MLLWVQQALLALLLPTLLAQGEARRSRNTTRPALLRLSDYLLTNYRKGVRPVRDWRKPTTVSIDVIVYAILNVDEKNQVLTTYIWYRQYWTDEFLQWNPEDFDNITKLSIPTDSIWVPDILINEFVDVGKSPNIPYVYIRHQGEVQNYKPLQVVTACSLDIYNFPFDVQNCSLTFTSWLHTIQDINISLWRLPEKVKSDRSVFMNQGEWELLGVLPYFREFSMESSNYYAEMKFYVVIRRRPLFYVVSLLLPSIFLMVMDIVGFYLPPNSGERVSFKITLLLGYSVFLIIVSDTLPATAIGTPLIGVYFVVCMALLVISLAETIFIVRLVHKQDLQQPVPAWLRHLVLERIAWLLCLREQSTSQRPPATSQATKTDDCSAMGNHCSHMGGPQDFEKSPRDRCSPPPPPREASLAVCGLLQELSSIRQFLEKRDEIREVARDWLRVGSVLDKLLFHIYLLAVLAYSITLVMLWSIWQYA
The series is described as follows: Inhibition of 5-HT3 (unknown origin).

Series [11] is described as follows: Clearance in Sprague-Dawley rat at 2 mg/kg, iv measured by LC-MS/MS analysis. Format: ADME, organism-based. The following applies: in vivo.
The nature of series [12]: Volume of distribution in steady state in Sprague-Dawley rat at 2 mg/kg, iv measured by LC-MS/MS analysis. The format is ADME, organism-based. To be noted: in vivo, read-out: Vdss.
For series [13], the target named is 5-hydroxytryptamine receptor 2A (Homo sapiens, UniProt P28223). The experiment in a line: Inhibition of 5-HT2a (unknown origin).
A short description of series [14]: AUC (0 to t) in Sprague-Dawley rat at 2 mg/kg, iv measured by LC-MS/MS analysis. Format: ADME, organism-based. Further details: dose 2 mg/kg. To be noted: in vivo.
A short description of series [15]: AUC (0 to t) in Sprague-Dawley rat at 5 mg/kg, po measured by LC-MS/MS analysis. Format: ADME, organism-based. Further details: dose 5 mg/kg. To be noted: in vivo.
The target of series [16] is T3, 5-hydroxytryptamine receptor 2C (Homo sapiens, UniProt P28335).
T3 sequence (P28335 whole entry): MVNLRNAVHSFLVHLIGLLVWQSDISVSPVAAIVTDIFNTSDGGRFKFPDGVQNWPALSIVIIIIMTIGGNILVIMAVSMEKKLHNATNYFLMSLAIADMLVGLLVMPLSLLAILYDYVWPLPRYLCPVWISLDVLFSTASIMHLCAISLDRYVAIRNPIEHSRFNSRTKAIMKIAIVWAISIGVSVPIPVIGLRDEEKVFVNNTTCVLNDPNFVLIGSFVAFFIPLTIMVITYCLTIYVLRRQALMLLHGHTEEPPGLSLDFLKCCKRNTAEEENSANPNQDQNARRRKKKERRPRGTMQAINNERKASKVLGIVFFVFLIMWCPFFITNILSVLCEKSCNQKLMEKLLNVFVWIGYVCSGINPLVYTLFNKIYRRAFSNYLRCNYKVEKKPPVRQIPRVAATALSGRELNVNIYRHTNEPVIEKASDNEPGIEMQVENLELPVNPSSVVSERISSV
The experiment in a line: Inhibition of 5-HT2c (unknown origin).

Series [17] deals with Rattus norvegicus. The series is described as follows: Antidepressant-like activity in rat assessed as reduction in immobility time at 10 ml/kg, sc measured after 60 mins by Forced swimming test. Format: functional, organism-based.
For series [18], the system named is Rattus norvegicus. The series is described as follows: Antidepressant-like activity in rat assessed as reduction in immobility time at 3 ml/kg, sc measured after 60 mins by Forced swimming test. Format: functional, organism-based.
Series [19] concerns the target Sodium-dependent serotonin transporter (Rattus norvegicus) (UniProt P31652). The series is described as follows: Antagonist activity at SERT in Sprague-Dawley rat hypothalamus assessed as PCA induced serotonin depletion at 10 mg/kg, iv measured after 30 mins by LC-MS/MS analysis. Format: organism-based. To be noted: filed as antagonist.

Each structure is given as a SMILES string. The source made the active and inactive calls.

5-hydroxytryptamine receptor 2A, sequence (P28223 whole entry): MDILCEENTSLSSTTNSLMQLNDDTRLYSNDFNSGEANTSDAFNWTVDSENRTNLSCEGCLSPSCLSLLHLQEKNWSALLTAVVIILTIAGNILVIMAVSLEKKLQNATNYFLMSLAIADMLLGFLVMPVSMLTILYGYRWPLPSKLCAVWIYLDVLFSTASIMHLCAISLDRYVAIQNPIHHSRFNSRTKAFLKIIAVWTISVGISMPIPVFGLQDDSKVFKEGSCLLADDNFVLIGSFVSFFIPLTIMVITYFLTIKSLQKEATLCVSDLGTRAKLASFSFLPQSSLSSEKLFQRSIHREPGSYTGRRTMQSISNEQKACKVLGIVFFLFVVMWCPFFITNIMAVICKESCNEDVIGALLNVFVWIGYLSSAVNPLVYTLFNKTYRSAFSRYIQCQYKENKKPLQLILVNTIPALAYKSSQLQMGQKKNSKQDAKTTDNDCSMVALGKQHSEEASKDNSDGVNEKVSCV
Sodium-dependent serotonin transporter, sequence (P31652 whole entry): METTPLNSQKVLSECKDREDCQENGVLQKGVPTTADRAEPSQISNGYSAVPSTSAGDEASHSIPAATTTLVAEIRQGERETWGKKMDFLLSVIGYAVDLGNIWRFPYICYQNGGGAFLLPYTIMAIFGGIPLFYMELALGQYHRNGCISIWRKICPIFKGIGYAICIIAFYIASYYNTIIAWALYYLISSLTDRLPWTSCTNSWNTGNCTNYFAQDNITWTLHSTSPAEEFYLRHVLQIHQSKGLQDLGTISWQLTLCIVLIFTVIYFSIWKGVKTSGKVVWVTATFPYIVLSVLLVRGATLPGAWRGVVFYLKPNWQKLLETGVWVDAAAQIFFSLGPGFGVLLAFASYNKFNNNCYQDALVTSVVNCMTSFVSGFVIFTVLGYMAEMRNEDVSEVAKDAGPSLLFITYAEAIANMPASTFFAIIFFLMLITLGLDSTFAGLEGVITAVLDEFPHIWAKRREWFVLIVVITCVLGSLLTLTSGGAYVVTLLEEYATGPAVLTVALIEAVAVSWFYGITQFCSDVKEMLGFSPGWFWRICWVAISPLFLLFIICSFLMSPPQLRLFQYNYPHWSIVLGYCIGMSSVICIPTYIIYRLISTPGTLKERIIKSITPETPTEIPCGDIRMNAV
Sodium-dependent serotonin transporter (Rattus norvegicus), sequence (P31652 whole entry): as above

What is called IC50 is the point on the concentration scale where inhibition reaches its midpoint. Regarding `N#Cc1ccc2[nH]cc(CCCN3CCN(c4ccc(-n5cc(F)ccc5=O)cc4)CC3)c2c1`, in [1], the IC50 was 2.22 nM.
For orientation: bioavailability means dose-corrected exposure relative to a reference, in per cent. A lower bioavailability goes with poor availability. One may read the Cmax as the highest concentration seen after dosing. The half-life is the time needed for the level to fall by half in the phase considered. A word on the clearance: it is the volume of plasma or blood freed of the substance per unit of time. In general, AUC(0-t) refers to exposure summed from dosing to a finite time, without extrapolation to infinity. High values mean more exposure, low ones less exposure. Regarding `N#Cc1ccc2[nH]cc(CCCCN3CCN(c4ccc(-n5ccc6occc6c5=O)cc4)CC3)c2c1`, the bioavailability in series [2] came out at 5.8%. Moreover, the Cmax was 33.6 ng/mL in [3] and 694 ng/mL in series [6]. The half-life in series [4] is 1.26 h; in series [7] it was 2.26 h; in [9], 5.2 h. The CLint scaled in series [5] was found to be 4.4 mL/min/kg. The IC50 was 0.14 nM in series [8], above 10000 nM in series [10], above 10000 nM in [13] and above 10000 nM in [16]. For the same compound, the clearance in series [11] is 59.3 mL/min/kg. Besides, the Vd in series [12] came out at 3.21 L/kg. The AUC(0-t) in series [14] was 559 ng·h/mL; in series [15], 77 ng·h/mL.
Consider `N#Cc1ccc2[nH]cc(CCCCCN3CCN(c4ccc(-n5ccccc5=O)cc4)CC3)c2c1`, for which the 50% inhibitory concentration (IC50) in series [1] worked out at 1.35 nM.
Regarding `Cc1ccn(-c2ccc(N3CCN(CCc4c[nH]c5ccc(C#N)cc45)CC3)cc2)c(=O)c1`, the IC50 in series [1] amounted to 7.57 nM.
For the compound `N#Cc1ccc2[nH]cc(CCCN3CCN(c4ccc(-n5ccc6ncccc6c5=O)cc4)CC3)c2c1`, the CLint scaled in series [5] came to 315 mL/min/kg. In addition, the IC50 in series [8] is 1.7 nM; in series [10] it was above 10000 nM; in series [13], above 10000 nM; in [16], above 10000 nM. For the same compound, the half-life in series [9] turned out to be 0.0735 h.
For the compound `Cc1ccn(-c2ccc(N3CCN(CCCc4c[nH]c5ccc(C#N)cc45)CC3)cc2)c(=O)c1`, in series [1], the IC50 came to 2.02 nM.
Turning to `N#Cc1ccc2[nH]cc(CCCCCN3CCN(c4ccc(-n5cc(F)ccc5=O)cc4)CC3)c2c1`, in series [1], the IC50 was determined as 6 nM.
`N#Cc1ccc2[nH]cc(CCCCN3CCN(c4ccc5oc(C(N)=O)cc5c4)CC3)c2c1` [VILAZODONE]: the CLint scaled in [5] was found to be 77.3 mL/min/kg. Moreover, the half-life in series [9] was found to be 0.298 h.
As to `Cc1ccn(-c2ccc(N3CCN(CCCCc4c[nH]c5ccc(C#N)cc45)CC3)cc2)c(=O)c1`, in series [1], the IC50 was determined as 2.03 nM.
Turning to `N#Cc1ccc2[nH]cc(CCN3CCN(c4ccc(-n5cc(F)ccc5=O)cc4)CC3)c2c1`, the concentration for half-maximal inhibition (IC50) in [1] stood at 5.51 nM.
Take `COc1ccn(-c2ccc(N3CCN(CCCc4c[nH]c5ccc(C#N)cc45)CC3)cc2)c(=O)c1`: in series [1], the IC50 was found to be 4.58 nM.
Consider `N#Cc1ccc2[nH]cc(CCCCN3CCN(c4ccc(-n5cc(F)ccc5=O)cc4)CC3)c2c1`, for which the IC50 in [1] was found to be 3.75 nM.
Regarding `N#Cc1ccc2[nH]cc(CCCCN3CCN(c4ccc(-n5ccc6ccccc6c5=O)cc4)CC3)c2c1`, the IC50 in series [1] came to 4.31 nM.
Regarding `N#Cc1ccc2[nH]cc(CCCN3CCN(c4ccc(-n5ccc6ccccc6c5=O)cc4)CC3)c2c1`, the IC50 in series [1] stood at 10.2 nM.
As to `N#Cc1ccc2[nH]cc(CCCCN3CCN(c4ccc(-n5ccccc5=O)cc4)CC3)c2c1`, the IC50 in series [1] was determined as 1.6 nM.
Consider `N#Cc1ccc2[nH]cc(CCCCN3CCN(c4ccc(-n5ccc6ncccc6c5=O)cc4)CC3)c2c1`, for which the outcome (in the series on Rattus norvegicus [17]; in the series with Rattus norvegicus [18]; in [19]) was Active. The same compound returned a bioavailability in [2] of 9.19%. The Cmax in series [3] amounted to 70.5 ng/mL; in series [6], 831 ng/mL. Moreover, the half-life in series [4] is 1.01 h; in series [7], 0.82 h; in series [9], 1.89 h. Moreover, the CLint scaled in series [5] was 12.2 mL/min/kg. For the same compound, the IC50 is 0.5 nM in series [8], above 10000 nM in series [10], above 10000 nM in series [13] and above 10000 nM in series [16]. This compound also showed a clearance in series [11] of 40.8 mL/min/kg. Also, the Vd in [12] is 2.47 L/kg. In addition, the exposure AUC(0-t) in series [14] stood at 823 ng·h/mL; in [15] it was 189 ng·h/mL.
